Source: patent publication US11938110B2, “Use of verapamil for the treatment of SARS-Cov-2 induced COVID-19” (priority 2020, dated 2024)
Counter-ions that a name gives are not always drawn.

How the values were obtained:
[1] = system: COVID-19 patients with hypertension; settings: oral administration; cited from earlier work
[2] = system: patients with Chronic obstructive pulmonary disease (COPD); settings: nasal spray
[3] = system: SARS-COV-2 (USA-WA1/2020); settings: Huh7 cells, MOI 0.1, 6.25, 12.5, 25 and 50 uM, compared to DMSO, 48 hours after infection

| Compound | case fatality rate of patients with hypertension [1] | blood oxygen pressure [2] | correction of blood pH [2] | oxygen saturation after inhalation ([2]; after inhalation) | oxygen saturation before inhalation ([2]; baseline) | viral RNA in the supernatant [3] | toxicity against Huh7 cells (Huh7 cells) |
| --- | --- | --- | --- | --- | --- | --- | --- |
| CCOC(=O)C1=C(COCCN)NC(C)=C(C(=O)OC)C1c1ccccc1Cl (stereo not shown) [amlodipine besylate] | distinctly reduced | – | – | – | – | – | – |
| COc1ccc(CCN(C)CCCC(C#N)(c2ccc(OC)c(OC)c2)C(C)C)cc1OC (stereo not shown) [verapamil hydrochloride] | – | improved | improved | 95.75±14.57 | 91.2±12.15 | dose-dependent reduction | no significant toxicity |
